In patent US12338256B2, “Aza-tetracyclic oxazepine compounds and uses thereof” (Genentech, Inc., priority 2022, dated 2025) one finds IC50 data, which are given here for eleven molecules.

What all share (type): cell-based
Assay [1] concerns AsPC-1 (homozygous mutant KRAS G12D human pancreatic cell line). The assay can be described thus: KRAS 3D-Cell Proliferation Assay, AsPC-1 (Example 503). To be noted: Homo sapiens, ASPC1, 168 h, AsPC-1 3D culture, 7 days, CellTiter-Glo 3D; read-out: Prolif AsPC-1 3D ATP IC50. On the procedure: Example 503: KRAS 3D-Cell Proliferation Assays. Cellular potencies of compounds are assessed by evaluating inhibition of proliferation in 3D cultures of homozygous mutant KRAS G12D human pancreatic cell lines (AsPC-1 and HPAC) as compared to a KRAS wild type human lung adenocarcinoma cell line (PC-9 and/or H1975). Cells are seeded into 384-well black round-bottom, ultra-low attachment assay plates in 50 uL cell growth medium (RPMI-1640 with 10% fetal bovine serum and 2 mM L-glutamine). After overnight incubation at 37° C. and 5% CO2, compounds solubilized in DMSO are added as dilution series to the wells in a total volume of 150 nL (0.3% DMSO final). The cells are incubated for 7 days at 37° C. and 5% CO2. Cell proliferation is quantitated by addition of 40 uL/well of CellTiter-GloÒ 3D (Promega), and the well contents are mixed 20× at high speed using liquid handling automation workstation (Bravo with 384-well head) and centrifuged at 1500 rpm for 2 minutes to eliminate bubbles. This reagent in combination with mechanical disruption releases the cellular ATP to promote activity in a luciferase-based enzyme/substrate chemiluminescent detection system. After a 30-minute incubation under ambient conditions with shaking and an additional 10 minutes without shaking, the luminescence is read on a plate reader (e.g., EnVision [PerkinElmer]). The results are normalized to percent inhibition based on the following control samples: DMSO (0% inhibition) and 1 μM staurosporine (100% inhibition). The normalized luminescence results are plotted against compound concentration, and the data are fit to a 4-parameter Hill equation to determine the IC50 values.

In assay [2] the test system is HPAC (homozygous mutant KRAS G12D human pancreatic cell line). The assay can be described thus: KRAS 3D-Cell Proliferation Assay, HPAC (Example 503). The following applies: Homo sapiens, HPAC, 168 h, HPAC 3D culture, 7 days, CellTiter-Glo 3D; read-out: Prolif HPAC 3D ATP IC50. An outline of the steps:
(§1)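 Luminescent ATP readout (CellTiter-Glo 3D, with mechanical mixing) measures growth of cells cultured in 3D after a 7-day compound exposure at 37° C. Percent inhibition is referenced to vehicle (DMSO) and 1 μM staurosporine controls, and IC50 comes from a four-parameter Hill fit.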

Assay [3] deals with H1975 (KRAS wild type human lung adenocarcinoma cell line). The assay can be described thus: KRAS 3D-Cell Proliferation Assay, H1975 (Example 503). To be noted: Homo sapiens, NCI-H1975, 168 h, H1975 3D culture, 7 days, CellTiter-Glo 3D; read-out: Prolif H1975 3D ATP IC50. A digest of the protocol:
as §1
A general note: Cellular ATP, detected with luciferase, serves as a proxy for viable cell number.

One may read the IC50 as the concentration that inhibits the measured activity by half.

Turning to `C[C@@H]1Oc2nc(-c3c(C(F)(F)F)cc(F)c(N)c3F)c(F)c3nc(OC[C@@]45CCCN4C[C@H](F)C5)nc(c23)N2C[C@H]3CC[C@H](N3)[C@@H]12` [Compound 90, 2,6-Difluoro-3-((5S,5aS,6S,9R)-1-fluoro-12-(((2R,7aS)-2-fluorotetrahydro-1H-pyrrolizin-7a(5H)-yl)methoxy)-5-methyl-5a,6,7,8,9,10-hexahydro-5H-4-oxa-3,10a,11,13,14-pentaaza-6,9-methanonaphtho[1,8-ab]heptalen-2-yl)-4-(trifluoromethyl)aniline], the figures for the IC50 in assay [1], in assay [2] and in assay [3] were 0.0189 µM, 0.0073 µM and 1.14 µM, respectively.
The like results for `C#Cc1cccc2cc(O)cc(-c3nc4c5c(nc(OC[C@@]67CCCN6C[C@H](F)C7)nc5c3F)N3C[C@H]5CC[C@H](N5)[C@H]3[C@H](C(F)(F)F)O4)c12` [Compound 251] were, in that order, 0.0019 µM, 0.0023 µM and 0.234 µM.
On to `Cc1c(F)c(N)cc(-c2nc3c4c(nc(OCC5(CN6CCOC[C@H]6C)CC5)nc4c2F)N2C[C@H]4CC[C@H](N4)[C@H]2[C@H](C)O3)c1C(F)(F)F` [Compound 129, 2-Fluoro-5-((5S,5aS,6S,9R)-1-fluoro-5-methyl-12-((1-(((R)-3-methylmorpholino)methyl)cyclopropyl)methoxy)-5a,6,7,8,9,10-hexahydro-5H-4-oxa-3,10a,11,13,14-pentaaza-6,9-methanonaphtho[1,8-ab]heptalen-2-yl)-3-methyl-4-(trifluoromethyl)aniline], for which the IC50 in assay [1] came out at 0.001 µM; in assay [2] it was 0.0011 µM; in assay [3], 1.15 µM.
Turning to `Cc1c(F)c(N)cc(-c2nc3c4c(nc(OC[C@H]5[C@@H](O)CCN5C)nc4c2F)N2C[C@H]4CC[C@H](N4)[C@H]2[C@H](C)O3)c1C(F)(F)F` [Compound 162, (2S,3S)-2-((((5S,5aS,6S,9R)-2-(5-Amino-4-fluoro-3-methyl-2-(trifluoromethyl)phenyl)-1-fluoro-5-methyl-5a,6,7,8,9,10-hexahydro-5H-4-oxa-3,10a,11,13,14-pentaaza-6,9-methanonaphtho[1,8-ab]heptalen-12-yl)oxy)methyl)-1-methylpyrrolidin-3-ol], the IC50 was found to be 0.2 µM in assay [1], 0.0487 µM in assay [2] and 9.45 µM in assay [3].
`C[C@@H]1Oc2nc(-c3cc(N)c(F)cc3C(F)(F)F)c(F)c3nc(OC[C@@H]4CC[C@H]5COCCN54)nc(c23)N2C[C@H]3CC[C@H](N3)[C@@H]12` [Compound 70, 2-Fluoro-5-((5S,5aS,6S,9R)-1-fluoro-12-(((6S,8aS)-hexahydro-1H-pyrrolo[2,1-c][1,4]oxazin-6-yl)methoxy)-5-methyl-5a,6,7,8,9,10-hexahydro-5H-4-oxa-3,10a,11,13,14-pentaaza-6,9-methanonaphtho[1,8-ab]heptalen-2-yl)-4-(trifluoromethyl)aniline]: the IC50 in assay [1] turned out to be 0.0441 µM; in assay [2], 0.011 µM; in assay [3], 1.7 µM.
Take `Cc1c(F)c(N)cc(-c2nc3c4c(nc(OC[C@@]56CCCN5C[C@H](F)C6)nc4c2F)N2C[C@H]4CC[C@H](N4)[C@@H]2[C@@H](C(F)(F)F)O3)c1C(F)(F)F` [Compound 248, 2-Fluoro-5-((5S,5aR,6S,9R)-1-fluoro-12-(((2R,7aS)-2-fluorotetrahydro-1H-pyrrolizin-7a(5H)-yl)methoxy)-5-(trifluoromethyl)-5a,6,7,8,9,10-hexahydro-5H-4-oxa-3,10a,11,13,14-pentaaza-6,9-methanonaphtho[1,8-ab]heptalene-2-yl)-3-methyl-4-(trifluoromethyl)aniline]: the half-inhibitory concentration (IC50) in assay [1] worked out at 0.0279 µM; in assay [2], 0.0125 µM; in assay [3], 0.244 µM.
In the case of `Cc1c(F)c(N)cc(-c2nc3c4c(nc(OCC5(CN6CCOCC6)CC5)nc4c2F)N2C[C@H]4CC[C@H](N4)[C@H]2[C@H](C)O3)c1CC(F)F` [Compound 156, 4-(2,2-Difluoroethyl)-2-fluoro-5-((5S,5aS,6S,9R)-1-fluoro-5-methyl-12-((1-(morpholinomethyl)cyclopropyl)methoxy)-5a,6,7,8,9,10-hexahydro-5H-4-oxa-3,10a,11,13,14-pentaaza-6,9-methanonaphtho[1,8-ab]heptalen-2-yl)-3-methylaniline], the IC50 in assay [1] stood at 0.0094 µM; in assay [2], 0.00294 µM; in assay [3], 0.776 µM.
The like results for `C#Cc1c(F)ccc2cccc(-c3nc4c5c(nc(OCC67CCN6CC(F)(F)C7)nc5c3F)N3C[C@H]5CC[C@H](N5)[C@H]3[C@H](C)O4)c12` (stereo partly drawn) [Compound 22, (5S,5aS,6S,9R)-12-((3,3-difluoro-1-azabicyclo[3.2.0]heptan-5-yl)methoxy)-2-(8-ethynyl-7-fluoronaphthalen-1-yl)-1-fluoro-5-methyl-5a,6,7,8,9,10-hexahydro-5H-4-oxa-3,10a,11,13,14-pentaaza-6,9-methanonaphtho[1,8-ab]heptalene] were, in that order, 0.0603 µM, 0.139 µM and 20 µM.
On to `Cc1nc(N)cc(-c2nc3c4c(nc(OCC5(CN6C7CCC6COC7)CC5)nc4c2F)N2C[C@H]4CC[C@H](N4)[C@H]2[C@H](C)O3)c1C(F)(F)F` [Compound 206, 4-((5S,5aS,6S,9R)-12-((1-((3-Oxa-8-azabicyclo[3.2.1]octan-8-yl)methyl)cyclopropyl)methoxy)-1-fluoro-5-methyl-5a,6,7,8,9,10-hexahydro-5H-4-oxa-3,10a,11,13,14-pentaaza-6,9-methanonaphtho[1,8-ab]heptalene-2-yl)-6-methyl-5-(trifluoromethyl)pyridin-2-amine], for which the results for the IC50 in assay [1], in assay [2] and in assay [3] were 0.0036 µM, 0.00316 µM and 2.84 µM, respectively.
Regarding `Cc1c(F)c(N)cc(-c2nc3c4c(nc(OC[C@@]56CCCN5C[C@H](F)C6)nc4c2F)N2C[C@H]4CC[C@H](N4)[C@H]2CO3)c1C(F)(F)F` [Compound 61, 2-Fluoro-5-((5aS,6S,9R)-1-fluoro-12-(((2R,7aS)-2-fluorotetrahydro-1H-pyrrolizin-7a(5H)-yl)methoxy)-5a,6,7,8,9,10-hexahydro-5H-4-oxa-3,10a,11,13,14-pentaaza-6,9-methanonaphtho[1,8-ab]heptalen-2-yl)-3-methyl-4-(trifluoromethyl)aniline], the values for the concentration for half-maximal inhibition (IC50) in assay [1], in assay [2] and in assay [3] were 0.0445 µM, 0.0213 µM and 2.61 µM, respectively.
Regarding `Cc1cc(N)c(F)c(-c2nc3c4c(nc(OC[C@@H]5CC[C@H]6COCCN65)nc4c2F)N2C[C@H]4CC[C@H](N4)[C@H]2[C@H](C)O3)c1C(F)(F)F` [Compound 97, 2-Fluoro-3-((5S,5aS,6S,9R)-1-fluoro-12-(((6S,8aS)-hexahydro-1H-pyrrolo[2,1-c][1,4]oxazin-6-yl)methoxy)-5-methyl-5a,6,7,8,9,10-hexahydro-5H-4-oxa-3,10a,11,13,14-pentaaza-6,9-methanonaphtho[1,8-ab]heptalen-2-yl)-5-methyl-4-(trifluoromethyl)aniline], the IC50 in assay [1] stood at 0.0101 µM; in assay [2] it was 0.00321 µM; in assay [3] it was 0.573 µM.
